Experimental data from patent US20250296961A1, “ANTIMICROBIAL PEPTIDES FOR REMINERALIZATION OF TEETH AND PREVENTION OF DENTAL CARIES” (The University of Hong Kong, priority 2021, published 2025).
Read-outs that look alike come from different tables or passages of the source. Non-standard residues stand in square brackets, D forms with d. No end group written: not given here. *: point of attachment. 3,4‑dihydroxyphenethylamine = Oc1ccc(CCN*)cc1O; pS = N[C@@H](COP(=O)(O)O)C(=O)O

Experiments:
[1] = Demineralization assay of peptide-coated enamel (Example 1); set-up: species or system human; conditions: for Maximum lesion depth: 8 μmol/mL coating, MicroCT
Method: (§1) 3×3×1.5 mm^3 (number: 197) tooth slices were prepared using a water-cooled diamond saw (IsoMet low-speed saw, Buehler, Lake Bluff, IL, USA). One working surface of complete enamel tissue from each tooth slice was generated using the MicroCT Skyscan 1172 (Bruker MicroCT, Kontich, Belgium). The enamel working side of the tooth slice was polished and other sides marked with acid-proof nail polish. All tooth slices were cleaned and stored in deionized water at 4° C.
Tooth slices (N=30) were immersed in 8 μmol/mL P-113, P-113-DPS, P-113-DA, P-113-SK, Sp-H5 (n=5 for each) solutions (in 10 mM HEPES) or HEPES (control) overnight. Tooth slices were incubated in 2 mL demineralization solution (2.2 mM CaCl2), 2.2 mM NaH2PO4, 0.05 M acetic acid, pH 4.5) for 7 days at 37° C. Lesions depths were analyzed by MicroCT Skyscan 1172. Mineral calcium (Ca) or phosphorus (P) concentrations before and after immersion were measured using Inductively Coupled Plasma Optical Emission Spectrometer (ICP-OES; Spectro Arcos, Kleve, Germany). Ca/P loss was expressed as mM/cm^2. The mean values of Ca/P loss were analyzed for each group using ANOVA at the 1% c significance level.

S. mutans [2] = assay: Anti-planktonic bacterial ability, MIC and MBC (Example 1); type: cell-based, Streptococcus mutans (ATCC 35668); conditions: for MIC: 24 h
Method: (§2) Streptococcus mutans (ATCC 35668, ATCC, Manassas, USA) were cultured in Horse Blood Medium under anaerobic (85% N2, 10% H2, and 5% CO2) conditions at 37° C. Cells were harvested by centrifugation (5000 rpm, 10 min), washed once with 10 mM sodium phosphate-buffered saline (PBS, pH 7.2), and resuspended in brain-heart infusion broth (BHI, Difco Laboratories, Detroit, USA) at a concentration of 10^6 CFU/mL.
Two-fold serial dilutions (in 10 mM HEPES) of P-113, P-113-DPS, P-113-DA, P-113-SK, and Sp-H5 prepared in 25% BHI medium were pipetted into a 96-well cell culture plate at final concentrations from 0.125-128 μmol/mL [100 μL/well]. Each well was seeded with 10 μL bacterial suspension at a final concentration of 10^6 CFU/mL. Sp-H5 with bacterial cells and 25% BHI medium with and without bacterial cells in 10 mM HEPES buffer (pH 7) were used as the positive, negative, and blank control group, respectively. After a 24-h incubation, absorbance was measured at 595 nm using a microplate reader to assess cell growth. […] The minimal bactericidal concentration (MBC) was defined as the lowest concentration of peptide resulting in no colony formation on agar plates after incubation. 10 μL of cell suspension from each well were plated on horse blood agar plates and incubated at 37° C. for 48 h. All determinations were conducted in triplicate experiments.

S. mutans biofilms = type: cell-based; conditions: for S. mutans killed (biofilm) / Viability counts of S. mutans biofilms: 24 h exposure
Method: as §2
S. mutans biofilms were cultured on enamel working surfaces in a 96-well plate. Tooth slices (N=32) were autoclave-sterilized prior to anti-biofilm activity testing. 200 μL S. mutans in BHI (10^6 CFU/mL) was added to each well. After a 24-h incubation at 37° C., each tooth slice was washed once with PBS. […] (in 10 mM HEPES). After incubation, tooth slices were washed once with PBS. One tooth slice at random in each group was stained with the LIVE/DEAD BacLight Bacterial Viability Kit (L7012, Thermo Fisher Scientific, Waltham, USA) and incubated in the dark for 30 min. Fluorescence images were obtained using confocal laser scanning microscopy (CLSM, Fluoview 1000, Olympus, USA). A separate tooth slice was used for the counting of colony-forming units (CFU). Tooth slices were placed in 1 mL BHI solution, and adherent biofilms were removed from the enamel surfaces by sonication for 30 sec. Ten-fold serial dilutions of the suspensions were plated in duplicate on horse blood agar. CFU's were counted after 48-h incubation. Three independent biofilm experiments were performed.

[3] = Remineralization assay of peptide-coated enamel (Example 1); set-up: species or system human; conditions: 8 μmol/mL coating, remineralization solution 24 h, FE-SEM
Method: as §1
The enamel working surface of tooth slices (N=30) was acid-etched in 37% phosphoric acid for 1 min and rinsed with deionized water for 1 min. The slices were immersed in 8 μmol/mL P-113, P-113-DPS, P-113-DA, P-113-SK, Sp-H5 (n=5 for each) solutions (in 10 mM HEPES) or HEPES (control) overnight. All tooth slices were incubated in 7 mL remineralization solution (2.58 mM CaCl2)·2H2O, 1.55 mM KH2PO4, 10 mg/L NaF, 180 mM NaCl, 50 mM Tris-HCl, pH 7.6) for 24 h. The enamel surface and cross-section morphology were analyzed by FE-SEM (Hitachi, S4800). Ca/P concentrations in the solutions before and after immersion were calculated by ICP-OES. The mean values for Ca/P gain were analyzed using ANOVA at the 1‰ significance level.

[4] = Adsorption capacity assay: peptides with HA particles (Micro BCA); type: binding; conditions: for Concentration change (95% CI): initial vs final concentration with HA particles; for Final concentration (Mean ± SD): peptide solution mixed with HA particles (20 mg/tube), overnight 37° C.
Method: The adsorption of P-113, P-113-DPS, P-113-DA, and P-113-SK to HA particles (Sigma Chemical Co., St Louis, USA) was measured using the Micro BCA method with Sp-H5 as the control group. Solutions of P-113, P-113-DPS, P-113-DA, P-113-SK and Sp-H5 in 10 mM HEPES buffer (pH 7) were diluted to 10 nmol/mL concentrations, and 200 μL was placed into each tube (P-113, N=10; P-113-DPS, N=10; P-113-DA, N=10; P-113-SK, N=10; and Sp-H5, N=10). Peptide solutions were mixed with (n=5) or without (n=5) HA particles (20 mg/tube) in each group. Tubes were placed onto a rotator overnight at 37° C. for complete reaction. Tubes containing the peptide solution and HA were centrifuged (13000 rpm, 1 min) and the supernatant collected. Bovine serum albumin (BSA) standard solutions (working range=5-250 μg/mL) and working reagent were prepared using the Pierce BCA Protein Assay Kit (Rockford, IL, USA). Working reagents (100 μL/well) were added to a 96-well plate, followed by standard and peptide solutions (100 μL/well). The Plate was incubated in the dark for 30 min and the absorbance (562 nm) measured using a plate reader. The concentration (C) of the BSA standard solution was linear with the absorbance (A) at 562 nm. The function of C=a*A+b was determined (a and b as constants). The final concentration (the peptide solution mixed with HA) and the initial concentration (the peptide solution without HA) were computed using the function and the generated absorbance data of the peptide solution mixed with and without HA.

S. gordonii = assay: Anti-planktonic bacterial ability, MBC (Example 2); type: cell-based, S. gordonii (ATCC 35105)
Method: (§3) S. mutans (ATCC 35668, ATCC, Manassas, USA), S. gordonii (ATCC 35105, ATCC, Manassas, USA), and S. sanguinis (ATCC 10556, ATCC, Manassas, USA) strains were cultured in brain-heart infusion broth (BHI, Difco Laboratories, Detroit, USA) at 37° C. under anaerobic conditions (85% N2, 10% H2, and 5% CO2). Bacteria were harvested by centrifugation (5000 rpm, 10 min), washed once with sodium phosphate-buffered saline (PBS, 10 mM, pH=7.2), and resuspended in BHI at a concentration of 1×10^6 CFU mL^−1.
(§4) Each well was seeded with 10 μL S. mutans suspension, S. gordonii suspension, and S. sanguinis suspension, respectively. […] The bacterial growth was assessed by measuring the absorbance at 595 nm using a microplate reader after a 24-hour incubation. Subsequently, 10 μL of bacterial suspension from each well were plated on horse blood agar plates and incubated at 37° C. for 48 h. The antibacterial activities of AMPs were evaluated.

S. mutans [5] = assay: Anti-planktonic bacterial ability, MBC (Example 2); type: cell-based, S. mutans (ATCC 35668)
Method: as §3, §4

S. sanguinis = assay: Anti-planktonic bacterial ability, MBC (Example 2); type: cell-based, S. sanguinis (ATCC 10556)
Method: as §3, §4

in vitro = conditions: human, human saliva (centrifuged, filtered supernatant)
Method: (§5) The collected saliva samples were centrifuged at 12,000 rpm for 20 min^21]. The supernatant was filtered to remove any debris. […] At 0, 0.5, 1, 2, 4, and 6 h, 40 uL solutions were taken from each sample and were analysed by High Performance Liquid Chromatography (HPLC-UV, 1525 Binary HPLC Pump, 2489 UV/Visible Detector, Waters, USA).

[6] = for Peptide concentration incubated in human saliva: 37° C.
Method: as §5

MC3T3-E1 cells = assay: Cytocompatibility test, CCK-8 (Example 2); set-up: Cytocompatibility: key to the marks not given beside the values
S. mutans [7] = assay: Anti-bacterial adhesion ability on peptide-coated enamel (Example 1); type: cell-based, Streptococcus mutans (ATCC 35668); conditions: 32 μmol/mL coated, 5 h incubation
Method: as §2
After overnight incubation, they were placed in a 96-well plate, followed by 200 μL S. mutans in BHI (10^6 CFU/mL) and incubation at 37° C. for 5 h. Tooth slices were washed once with PBS, one tooth slice at random from each group was stained, and fluorescence images obtained by CLSM. Separate tooth slices were used for CFU counting. Three independent biofilm experiments were performed.

[8] = demineralization solution 7 days

AKRHHGYKRKFH-D-3,4-dihydroxyphenethylamine (AKRHHGYKRKFHD-{3,4‑dihydroxyphenethylamine}; not fully specified; printed as AKRHHGYKRKFH-D-3,4-dihydroxyphenethylamine) [Peptide P-113-DA]
Maximum lesion depth [1, 8]: 110 μm | Ca losses vs control group [1, 8]: Significant differences were not detected | MBC (S. mutans [2]): 32 μM mL^−1 | MIC (S. mutans [2]): 16 μM mL^−1 | S. mutans killed (biofilm) (S. mutans biofilms; 64 μmol/mL): Approximately 99% | Viability counts of S. mutans biofilms (S. mutans biofilms; 64 μmol/mL): 6.04E+05 CFU/mL | CLSM live/dead state of S. mutans biofilm (S. mutans biofilms; 64 and 128 μmol/mL, 24 h): the majority of S. mutans were dead | Thickness of the regenerated crystal layer on the enamel surface [3]: 7 μm | Concentration change (95% CI) [4]: −0.17 (−0.55-0.40) | Final concentration (Mean ± SD) [4]: 10.05 ± 0.99 nM mL^−1

AKRHHGYKRKFHDSSDSSDSSDSSDSSDSSDSSDSS [Peptide P-113-8DSS]
MBC, S. gordonii (S. gordonii): >64 μM mL^−1 | MBC, S. mutans (S. mutans [5]): >64 μM mL^−1 | MBC, S. sanguinis (S. sanguinis): >64 μM mL^−1

DSSDSSDSSDSSDSSDSSDSSDSSAKRHHGYKRKFH [Peptide 8DSS-P-113]
MBC, S. gordonii (S. gordonii): 64 μM mL^−1 | MBC, S. mutans (S. mutans [5]): >64 μM mL^−1 | MBC, S. sanguinis (S. sanguinis): 64 μM mL^−1

SpSpAKRHHGYKRKFH ([pS][pS]AKRHHGYKRKFH) [DPS-P-113]
MBC, S. gordonii (S. gordonii): >64 μM mL^−1 | MBC, S. mutans (S. mutans [5]): 64 μM mL^−1 | MBC, S. sanguinis (S. sanguinis): >64 μM mL^−1

TFFRLFNRAKRHHGYKRKFH [Peptide C8-P-113]
remaining at 6 h, 1 mg mL^−1 (in vitro): 11.9% | Peptide concentration incubated in human saliva ([6]; 0 h): 1 mg/mL | Peptide concentration incubated in human saliva ([6]; 0.5 h): 0.9531 mg/mL | Peptide concentration incubated in human saliva ([6]; 1 h): 0.8602 mg/mL | Peptide concentration incubated in human saliva ([6]; 2 h): 0.4977 mg/mL | Peptide concentration incubated in human saliva ([6]; 4 h): 0.3578 mg/mL | Peptide concentration incubated in human saliva ([6]; 6 h): 0.119 mg/mL | Stability ([6]; summary grade): − | Concentrations with no significant differences in cell survival rates compared to the control group (MC3T3-E1 cells; MC3T3-E1, 24 h, ½×MBC, MBC and 2×MBC tested): all concentrations | Cytocompatibility (MC3T3-E1 cells; summary grade): ++

TFFRLFNRAKRHHGYKRKFHDSSDSSDSSDSSDSSDSSDSSDSS (not fully specified) [C8-P-113-8DSS]
MBC, S. gordonii (S. gordonii): >64 μM mL^−1 | MBC, S. mutans (S. mutans [5]): 64 μM mL^−1 | MBC, S. sanguinis (S. sanguinis): >64 μM mL^−1

phosphoserine-DSHAKRHHGYKRKFHEKHHSHRGY (SDSHAKRHHGYKRKFHEKHHSHRGY; N-terminal phosphoserine; MOD_RES 1 Serine is phosphorylated) [Sp-H5, phosphoserine-histatin 5, used as control group]
Maximum lesion depth [1, 8]: 85 μm | Ca and P loss from coated enamel slices (ICP-OES) ([1]; vs P-113-, P-113-DA-, P-113-SK-coated or non-coated slices, P<0.001): decreased significantly | MBC (S. mutans [2]): 32 μM mL^−1 | MIC (S. mutans [2]): 8 μM mL^−1 | S. mutans killed (biofilm) (S. mutans biofilms; 128 μmol/mL): Approximately 99% | Viability counts of S. mutans biofilms (S. mutans biofilms; 128 μmol/mL): 2.0E+04 CFU/mL | Thickness of the regenerated crystal layer on the enamel surface [3]: 6 μm | Concentration change (95% CI) [4]: 3.27 (2.92-3.58) | Final concentration (Mean ± SD) [4]: 6.73 ± 0.12 nM mL^−1 | Viable counts of S. mutans on peptide-coated enamel surfaces (S. mutans [7]): 2.04E+05 CFU/mL
